According to patent US20250108048A1, “STING AGONIST COMPOUNDS AND CONJUGATES” (SUTRO BIOPHARMA, INC., priority 2023, published 2025):
Read-outs that look alike come from different tables or passages of the source.

Key:
hSTING H232 [1] = molecular target: T1, hSTING H232 (Homo sapiens, UniProt Q86WV6); test: THP1-Dual KI-hSTING-H232 reporter assay (IRF pathway, secreted Lucia luciferase); type: cell-based; parameters: host or cells: THP1-Dual KI-hSTING-H232 (from THP1-Dual KO-STING); details: THP1-Dual KI-hSTING-H232 cells, 24 hours; read-out: Reporter assay EC50 (nM) THP-1-H232
Experimental: (§1) The activities of the STING agonists to activate human or mouse STING pathways were evaluated in THP-1-Dual™, THP1-Dual™ KI-hSTING-R232, THP1-Dual™ KI-hSTING-H232 Cells and THP1-Dual™ KI-mSTING Cells. THP-1-Dual™ cells contains hSTING-HAQ haplotype and can be used to evaluate the activity of STING agonists by monitoring the activation of NF-κB pathway and the […] (IFN regulatory factor) pathways. THP1-Dual™ KO-STING cells were generated from THP1-Dual™ cells by stable knockout of the endogenous HAQ STING gene. THP1-Dual™ KI-hSTING-R232 cells, THP1-Dual™ KI-hSTING-H232 cells and THP1-Dual™ KI-mSTING cells were generated by transfecting THP1-Dual™ KO-STING cells with hSTING-R232 or hSTING-H232 or mSTING. Stimulating these reporter cells with a STING agonist activates TRF pathway and induces the production of a secreted Lucia luciferase in the cell culture medium, which can be determined using QUANTI-Luc™ reagent.
(§2) THP-1-Dual™, THP1-Dual™ KI-hSTING-R232, THP1-Dual™ KI-hSTING-H232 and THP1-Dual™ KI-mSTING reporter cells were purchased from Invivogen and maintained in manufacture recommended culture medium with required supplemental antibiotics. On the day of assay, the cells were harvested with Accutase and counted by the Vi-CELL Cell Viability Analyzers. Cells were resuspended in HEK blue detection medium and a total of 10000 cells were seeded in each well of a 384-well flat bottom plate. […] After incubation at 37° C. in a CO2 incubator for 24 hours, 20 μl of cell culture medium per well was transferred into a 384-well white (opaque) plate. 50 μl of QUANTI-Luc™ assay solution was then added to each well and the plate was immediately transferred to an ENVISION® plate reader to measure luminescence (Perkin-Elmer). Relative luminescence readings were converted to fold change of signal using untreated cells as controls. Data was fitted with non-linear regression analysis, using log (agonist) vs. response, variable slope, 4-parameter fit equation using GraphPad Prism. Data was expressed as fold change in signal vs. dose of STING agonist in nM with error bars indicating the Standard Deviation (SD) of the quadruplicates. There result was reported in Table 2 as EC50 (the midpoint of the curve, or concentration at which […] of the maximum effect was observed).

hSTING-R232 = molecular target: T2, hSTING-R232 (Homo sapiens, UniProt Q86WV6, H232R); test: THP1-Dual KI-hSTING-R232 reporter assay (IRF pathway, secreted Lucia luciferase); type: cell-based; details: THP1-Dual KI-hSTING-R232 cells, 24 hours; read-out: Reporter assay EC50 (nM) THP-1-R232
T2 construct: host or cells: THP1-Dual KI-hSTING-R232 (from THP1-Dual KO-STING)
Experimental: as §1, §2

hSTING WT = hSTING WT (Homo sapiens, UniProt Q86WV6); test: Surface plasmon resonance, hSTING WT; type: binding; details: read-out: hSTING WT SPR (Kd)
hSTING-HAQ haplotype = molecular target: T3, hSTING-HAQ haplotype (Homo sapiens, UniProt Q86WV6, G230A/H232R/R293Q/R71H); test: THP-1-Dual reporter assay (endogenous hSTING-HAQ); type: cell-based; details: THP-1-Dual cells (hSTING-HAQ), 24 hours
T3 construct: host or cells: THP-1-Dual
Experimental: as §1, §2

hSTING AQ = hSTING AQ (Homo sapiens, UniProt Q86WV6, G230A/H232R/R293Q); test: Surface plasmon resonance, hSTING AQ; type: binding; details: read-out: hSTING AQ SPR (Kd)
hSTING H232 [2] = molecular target: T1, hSTING H232; test: Surface plasmon resonance, hSTING H232; type: binding; details: read-out: hSTING H232 SPR (Kd)
mSTING = molecular target: T4, mSTING (Mus musculus, UniProt Q3TBT3); test: 293-mSTING reporter assay; type: cell-based
T4 sequence (Q3TBT3 1-378): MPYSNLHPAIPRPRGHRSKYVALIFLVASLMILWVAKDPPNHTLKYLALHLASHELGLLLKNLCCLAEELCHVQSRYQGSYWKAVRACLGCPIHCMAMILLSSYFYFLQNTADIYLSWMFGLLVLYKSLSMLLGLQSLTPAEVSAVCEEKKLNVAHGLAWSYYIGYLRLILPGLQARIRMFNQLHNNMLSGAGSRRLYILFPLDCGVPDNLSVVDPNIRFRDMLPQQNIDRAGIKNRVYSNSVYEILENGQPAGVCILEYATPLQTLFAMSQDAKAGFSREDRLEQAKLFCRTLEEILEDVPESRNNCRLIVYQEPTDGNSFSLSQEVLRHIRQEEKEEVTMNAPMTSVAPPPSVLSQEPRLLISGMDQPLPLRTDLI

[3] = test system: TROP2 positive NCI-H292 Cells; test: Cytokine release from cancer cells (MSD); type: cell-based, human; details: 120 hours; for EC50: Homo sapiens
Experimental: The cell supernatant was collected and IP-10 and IL-6 released in the cell culture medium was measured using Streptavidin single spot 96 well plates, compatible human antibody pairs, and calibrating solutions commercially available from MesoScale Discovery. Raw data generated by the Meso Scale Discovery (MSD®) SQ120 plate reader was imported into MSD Discovery Workbench software. Unknown sample values were interpolated from standard curves by the software and imported into Graphpad Prism. Each cytokine level was fitted with non-linear regression analysis, using log (agonist) vs. response, variable slope, 4-parameter fit equation in GraphPad Prism.

NCI-H292 cells = test: Immunogenic cell death markers (HMGB1 release, surface calreticulin); type: cell-based, human; details: 48 hours
Experimental: Immunogenic cell death elicited by the TROP2 ADC, iSAC, and exatecan were measured by cell surface translocate of calreticulin and release of HMGB1 in the cell culture supernatant. Briefly, TROP2 positive cell line NCI-H292 were seeded into a 96-well flat bottom plate 4 hours prior to the initialization of the assay. Test articles were formulated at a 2× starting concentration in cell culture medium, and samples were serial diluted (1:3) under sterile conditions and added onto the cells in duplicates. After incubation at 37° C. in a CO2 incubator for 48 hours, the cell supernatant was collected for measuring HMGB1 and the adherent cells were collected for calreticulin expression on the cell surface.
HMGB1 released in the supernatant was assessed via sandwich ELISA using mouse anti-human HMGB1 clone 2F6 (Sigma-Aldrich) as the capture, polyclonal rabbit anti-human HMGB1 (Abcam) as secondary, and polyclonal goat anti-rabbit IgG HRP as the detection antibody. The HMGB1 concentrations in the cell culture medium were calculated based a standard curve built on commercially available recombinant human HMGB1 (R&D Systems).
NCI-H292 cells were detached using Accutase (Innovative Cell Technologies) and viability was accessed using a 1:500 dilution of Zombie NIR viability dye. […] Surface calreticulin measures on the live cells were gathered using an Attune NXT Flow Cytometer (ThermoFisher Scientific) to obtain median fluorescence intensity values. All data were fitted with non-linear regression analysis, using log(agonist) vs. response, variable slope, 4 parameter fit equation using GraphPad Prism.

T1 sequence (Q86WV6 whole entry): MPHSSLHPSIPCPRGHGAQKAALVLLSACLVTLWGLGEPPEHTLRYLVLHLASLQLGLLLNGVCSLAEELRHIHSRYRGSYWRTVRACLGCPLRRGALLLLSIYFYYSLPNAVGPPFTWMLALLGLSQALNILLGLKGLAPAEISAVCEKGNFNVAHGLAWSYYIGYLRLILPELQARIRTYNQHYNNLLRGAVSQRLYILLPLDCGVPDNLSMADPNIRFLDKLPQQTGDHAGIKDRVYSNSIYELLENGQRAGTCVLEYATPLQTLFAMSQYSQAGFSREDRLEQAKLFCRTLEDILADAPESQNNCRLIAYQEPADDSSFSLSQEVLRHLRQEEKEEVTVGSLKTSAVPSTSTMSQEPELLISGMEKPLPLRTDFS
T3 sequence (Q86WV6 whole entry R71H/G230A/H232R/R293Q): as the sequence (Q86WV6 whole entry) above, with R71H, G230A, H232R, R293Q counted along it
Chain of hSTING AQ (Q86WV6 whole entry G230A/H232R/R293Q): as the sequence (Q86WV6 whole entry) above, with G230A, H232R, R293Q counted along it
T2 sequence (Q86WV6 whole entry H232R): as the sequence (Q86WV6 whole entry) above, with H232R counted along it
Chain of hSTING WT (Q86WV6 whole entry H232R): as the sequence (Q86WV6 whole entry) above, with H232R counted along it

CCn1nc(C)cc1C(=O)Nc1nc2cc(C(N)=O)ccc2n1C/C=C/Cn1c(NC(=O)c2cc(C)nn2CC)nc2cc(C(N)=O)cc(OCCCN3CC4(C3)CN(C(=O)CON=C(C)c3ccc(C[C@H](N)C(=O)O)cc3)CCO4)c21 (racemic) [LP-1-4, rac-(2S)-2-amino-3-[4-[N-[2-[2-[3-[6-carbamoyl-2-[(2-ethyl-5-methyl-pyrazole-3-carbonyl)amino]-3-[rac-(E)-4-[5-carbamoyl-2-[(2-ethyl-5-methyl-pyrazole-3-carbonyl)amino]benzimidazol-1-yl]but-2-enyl]benzimidazol-4-yl]oxypropyl]-5-oxa-2,8-diazaspiro[3.5]nonan-8-yl]-2-oxo-ethoxy]-C-methyl-carbonimidoyl]phenyl]propanoic acid]
EC50 (hSTING H232 [1]): > 150 nM | EC50 (hSTING-R232): > 150 nM | Kd (hSTING WT): ≤ 20 nM | EC50 (hSTING-HAQ haplotype): > 150 nM | Kd (hSTING AQ): ≤ 20 nM | Kd (hSTING H232 [2]): ≤ 20 nM | EC50 (mSTING): > 150 nM

CCn1nc(C)cc1C(=O)Nc1nc2cc(C(N)=O)ccc2n1C/C=C/Cn1c(NC(=O)c2cc(C)nn2CC)nc2cc(C(N)=O)cc(OCCCN3CC4(C3)CN(C(=O)[C@@H](N)CC(C)C)CCO4)c21 [Compound 2, (E)-7-(3-(8-(L-leucyl)-5-oxa-2,8-diazaspiro[3.5]nonan-2-yl)propoxy)-1-(4-(5-carbamoyl-2-(1-ethyl-3-methyl-1H-pyrazole-5-carboxamido)-1H-benzo[d]imidazol-1-yl)but-2-en-1-yl)-2-(1-ethyl-3-methyl-1H-pyrazole-5-carboxamido)-1H-benzo[d]imidazole-5-carboxamide]
EC50 (hSTING H232 [1]): ≤ 50 nM | EC50 (hSTING-R232): ≤ 50 nM | Kd (hSTING WT): ≤ 20 nM | EC50 (hSTING-HAQ haplotype): 50 to 150 nM | Kd (hSTING AQ): ≤ 20 nM | Kd (hSTING H232 [2]): ≤ 20 nM | EC50 (mSTING): > 150 nM

CCn1nc(C)cc1C(=O)Nc1nc2cc(C(N)=O)ccc2n1C/C=C/Cn1c(NC(=O)c2cc(C)nn2CC)nc2cc(C(N)=O)cc(OCCCN3CC4(CNCCO4)C3)c21 [Compound 1]
EC50 (hSTING H232 [1]): ≤ 50 nM | IL-6 Release Span [3]: >10000 pg/mL | IP-10 Release Span [3]: >4000 pg/mL | EC50 ([3]; read-out: IL-6 Release EC50): > 100 nM | EC50 ([3]; read-out: IP-10 Release EC50): > 100 nM | EC50 (hSTING-R232): ≤ 50 nM | Kd (hSTING WT): ≤ 20 nM | EC50 (hSTING-HAQ haplotype): ≤ 50 nM | Kd (hSTING AQ): ≤ 20 nM | Kd (hSTING H232 [2]): ≤ 20 nM | HMGB-1 Release Span (NCI-H292 cells): 17 ng/mL | EC50 (NCI-H292 cells; Homo sapiens, sandwich ELISA, read-out: HMGB-1 Release EC50): 6.06 nM | EC50 (mSTING): > 150 nM

CCn1nc(C)cc1C(=O)Nc1nc2cc(C(N)=O)cc(OC)c2n1C/C=C/Cn1c(NC(=O)c2cc(C)nn2CC)nc2cc(C(N)=O)cc(OCCCN3CC4(CNCCO4)C3)c21 [Compound 6]
EC50 (hSTING H232 [1]): ≤ 50 nM | EC50 (hSTING-R232): ≤ 50 nM | Kd (hSTING WT): ≤ 20 nM | EC50 (hSTING-HAQ haplotype): ≤ 50 nM | Kd (hSTING AQ): ≤ 20 nM | Kd (hSTING H232 [2]): ≤ 20 nM | EC50 (mSTING): 50 to 150 nM

CCn1nc(C)cc1C(=O)Nc1nc2cc(C(N)=O)ccc2n1C/C=C/Cn1c(NC(=O)c2cc(C)nn2CC)nc2cc(C(N)=O)cc(OCCCN3CC4(C3)CN(C(=O)CON)CCO4)c21 [LP-1-1, 7-[3-[8-(2-aminooxyacetyl)-5-oxa-2,8-diazaspiro[3.5]nonan-2-yl]propoxy]-1-[(E)-4-[5-carbamoyl-2-[(2-ethyl-5-methyl-pyrazole-3-carbonyl)amino]benzimidazol-1-yl]but-2-enyl]-2-[(2-ethyl-5-methyl-pyrazole-3-carbonyl)amino]benzimidazole-5-carboxamide]
EC50 (hSTING H232 [1]): > 150 nM | EC50 (hSTING-R232): > 150 nM | Kd (hSTING WT): ≤ 20 nM | EC50 (hSTING-HAQ haplotype): 50 to 150 nM | Kd (hSTING AQ): ≤ 20 nM | Kd (hSTING H232 [2]): ≤ 20 nM | EC50 (mSTING): > 150 nM

CCn1nc(C)cc1C(=O)Nc1nc2cc(C(N)=O)ccc2n1C/C=C/Cn1c(NC(=O)c2cc(C)nn2CC)nc2cc(C(N)=O)cc(OCCCN3CC4(C3)CN(C(=O)CN)CCO4)c21 [Compound 3]
EC50 (hSTING H232 [1]): 50 to 150 nM | EC50 (hSTING-R232): 50 to 150 nM | Kd (hSTING WT): ≤ 20 nM | EC50 (hSTING-HAQ haplotype): 50 to 150 nM | Kd (hSTING AQ): ≤ 20 nM | Kd (hSTING H232 [2]): ≤ 20 nM | EC50 (mSTING): > 150 nM
